Measurements: ChEMBL document CHEMBL3046635, “Synthesis and Herbicidal Activity of New Pyrazole-4-carboxamide Derivatives” (J Pestic Sci, 2004)
The source made the active and inactive calls.

What was measured:
[1] = tested on: Echinochloa oryzicola; experiment: Pre-emergence herbicidal activity against Echinochloa oryzicola at 100 g a.i/ha measured after 14 days; assay type: functional, organism-based
[2] = tested on: Schoenoplectiella juncoides; experiment: Pre-emergence herbicidal activity against Schoenoplectiella juncoides assessed as bleaching of stem/leaf parts; assay type: functional, organism-based
[3] = tested on: Echinochloa oryzicola; experiment: Pre-emergence herbicidal activity against Echinochloa oryzicola at 500 g a.i/ha measured after 14 days; assay type: functional, organism-based
[4] = tested on: Oryza sativa; experiment: Phytotoxicity against Oryza sativa cv. Koshihikari (rice) at 500 g a.i/ha measured after 14 days; assay type: organism-based; settings: in vivo, 336 h
[5] = tested on: Cyperus difformis; experiment: Post-emergence herbicidal activity against Cyperus difformis assessed as bleaching of stem/leaf parts; assay type: functional, organism-based; note: test concentration or dose not given here
[6] = tested on: Rotala indica; experiment: Pre-emergence herbicidal activity against Rotala indica at 500 g a.i/ha measured after 14 days; assay type: functional, organism-based
[7] = tested on: Cyperus difformis; experiment: Pre-emergence herbicidal activity against Cyperus difformis at 500 g a.i/ha measured after 14 days; assay type: functional, organism-based
[8] = tested on: Cyperus difformis; experiment: Pre-emergence herbicidal activity against Cyperus difformis assessed as bleaching of stem/leaf parts; assay type: functional, organism-based
[9] = tested on: Lindernia procumbens; experiment: Pre-emergence herbicidal activity against Lindernia procumbens at 100 g a.i/ha measured after 14 days; assay type: functional, organism-based
[10] = tested on: Ammannia multiflora; experiment: Post-emergence herbicidal activity against Ammannia multiflora assessed as bleaching of stem/leaf parts; assay type: functional, organism-based; note: test concentration or dose not given here
[11] = tested on: Elatine triandra; experiment: Pre-emergence herbicidal activity against Elatine triandra at 100 g a.i/ha measured after 14 days; assay type: functional, organism-based
[12] = tested on: Pontederia vaginalis; experiment: Pre-emergence herbicidal activity against Monochoria vaginalis assessed as bleaching of stem/leaf parts; assay type: functional, organism-based
[13] = tested on: Eleocharis acicularis; experiment: Post-emergence herbicidal activity against Eleocharis acicularis assessed as bleaching of stem/leaf parts; assay type: functional, organism-based; note: test concentration or dose not given here
[14] = tested on: Elatine triandra; experiment: Pre-emergence herbicidal activity against Elatine triandra at 500 g a.i/ha measured after 14 days; assay type: functional, organism-based
[15] = tested on: Rotala indica; experiment: Pre-emergence herbicidal activity against Rotala indica at 100 g a.i/ha measured after 14 days; assay type: functional, organism-based
[16] = tested on: Ammannia multiflora; experiment: Pre-emergence herbicidal activity against Ammannia multiflora at 100 g a.i/ha measured after 14 days; assay type: functional, organism-based
[17] = tested on: Oryza sativa; experiment: Phytotoxicity against Oryza sativa cv. Koshihikari (rice) at 100 g a.i/ha measured after 14 days; assay type: organism-based; settings: in vivo, 336 h
[18] = tested on: Lindernia procumbens; experiment: Pre-emergence herbicidal activity against Lindernia procumbens at 500 g a.i/ha measured after 14 days; assay type: functional, organism-based
[19] = tested on: Schoenoplectiella juncoides; experiment: Post-emergence herbicidal activity against Schoenoplectiella juncoides assessed as bleaching of stem/leaf parts; assay type: functional, organism-based; note: test concentration or dose not given here
[20] = tested on: Echinochloa oryzicola; experiment: Pre-emergence herbicidal activity against Echinochloa oryzicola assessed as bleaching of stem/leaf parts; assay type: functional, organism-based
[21] = tested on: Eleocharis acicularis; experiment: Pre-emergence herbicidal activity against Eleocharis acicularis at 100 g a.i/ha measured after 14 days; assay type: functional, organism-based
[22] = tested on: Rotala indica; experiment: Pre-emergence herbicidal activity against Rotala indica assessed as bleaching of stem/leaf parts; assay type: functional, organism-based
[23] = tested on: Lindernia procumbens; experiment: Pre-emergence herbicidal activity against Lindernia procumbens assessed as bleaching of stem/leaf parts; assay type: functional, organism-based
[24] = tested on: Schoenoplectiella juncoides; experiment: Pre-emergence herbicidal activity against Schoenoplectiella juncoides at 500 g a.i/ha measured after 14 days; assay type: functional, organism-based
[25] = tested on: Rotala indica; experiment: Post-emergence herbicidal activity against Rotala indica assessed as bleaching of stem/leaf parts; assay type: functional, organism-based; note: test concentration or dose not given here
[26] = tested on: Lindernia procumbens; experiment: Post-emergence herbicidal activity against Lindernia procumbens assessed as bleaching of stem/leaf parts; assay type: functional, organism-based; note: test concentration or dose not given here
[27] = tested on: Pontederia vaginalis; experiment: Post-emergence herbicidal activity against Monochoria vaginalis assessed as bleaching of stem/leaf parts; assay type: functional, organism-based; note: test concentration or dose not given here
[28] = tested on: Elatine triandra; experiment: Post-emergence herbicidal activity against Elatine triandra assessed as bleaching of stem/leaf parts; assay type: functional, organism-based; note: test concentration or dose not given here
[29] = tested on: Pontederia vaginalis; experiment: Pre-emergence herbicidal activity against Monochoria vaginalis at 500 g a.i/ha measured after 14 days; assay type: functional, organism-based
[30] = tested on: Pontederia vaginalis; experiment: Pre-emergence herbicidal activity against Monochoria vaginalis at 100 g a.i/ha measured after 14 days; assay type: functional, organism-based
[31] = tested on: Ammannia multiflora; experiment: Pre-emergence herbicidal activity against Ammannia multiflora at 500 g a.i/ha measured after 14 days; assay type: functional, organism-based
[32] = tested on: Schoenoplectiella juncoides; experiment: Pre-emergence herbicidal activity against Schoenoplectiella juncoides at 100 g a.i/ha measured after 14 days; assay type: functional, organism-based
[33] = tested on: Echinochloa oryzicola; experiment: Post-emergence herbicidal activity against Echinochloa oryzicola assessed as bleaching of stem/leaf parts; assay type: functional, organism-based; note: test concentration or dose not given here
[34] = tested on: Eleocharis acicularis; experiment: Pre-emergence herbicidal activity against Eleocharis acicularis at 500 g a.i/ha measured after 14 days; assay type: functional, organism-based
[35] = tested on: Ammannia multiflora; experiment: Pre-emergence herbicidal activity against Ammannia multiflora assessed as bleaching of stem/leaf parts; assay type: functional, organism-based
[36] = tested on: Cyperus difformis; experiment: Pre-emergence herbicidal activity against Cyperus difformis at 100 g a.i/ha measured after 14 days; assay type: functional, organism-based
[37] = tested on: Elatine triandra; experiment: Pre-emergence herbicidal activity against Elatine triandra assessed as bleaching of stem/leaf parts; assay type: functional, organism-based
[38] = tested on: Eleocharis acicularis; experiment: Pre-emergence herbicidal activity against Eleocharis acicularis assessed as bleaching of stem/leaf parts; assay type: functional, organism-based

Row | Structure (SMILES) | Activity [1] | Activity [2] | Activity [3] | Activity [4] | Activity [5] | Activity [6] | Activity [7] | Activity [8] | Activity [9] | Activity [10] | Activity [11] | Activity [12] | Activity [13] | Activity [14] | Activity [15] | Activity [16] | Activity [17] | Activity [18] | Activity [19] | Activity [20] | other results
1 | Cn1cc(C(=O)NOc2ccc(C(F)(F)F)cc2)c(OCc2cccc(C(F)(F)F)c2)n1 | Active | Active | Active | Non-toxic | Active | Active | Active | Active | Active | Active | Active | Active | Active | Active | Active | Active | Non-toxic | Active | Active | Active | Activity [21]: Active; Activity [22]: Active; Activity [23]: Active; Activity [24]: Active; Activity [25]: Active; Activity [26]: Active; Activity [27]: Active; Activity [28]: Active; Activity [29]: Active; Activity [30]: Active; Activity [31]: Active; Activity [32]: Active; Activity [33]: Active; Activity [34]: Active; Activity [35]: Active; Activity [36]: Active; Activity [37]: Active; Activity [38]: Active
2 | Cn1cc(C(=O)NOc2ccccc2Cl)c(OCc2cccc(C(F)(F)F)c2)n1 | inactive | Active | Active | Non-toxic | Active | Active | Active | Active | Active | Active | Active | Active | Active | Active | Active | Active | Non-toxic | Active | Active | Active | Activity [21]: Active; Activity [22]: Active; Activity [23]: Active; Activity [24]: Active; Activity [25]: Active; Activity [26]: Active; Activity [27]: Active; Activity [28]: Active; Activity [29]: Active; Activity [30]: Active; Activity [31]: Active; Activity [32]: inactive; Activity [33]: Active; Activity [34]: Active; Activity [35]: Active; Activity [36]: Active; Activity [37]: Active; Activity [38]: Active
3 | Cn1cc(C(=O)Nc2ccccc2)c(OCc2cccc(C(F)(F)F)c2)n1 | Active | Active | Active | Non-toxic | Active | Active | Active | Active | Active | Active | Active | Active | Active | Active | Active | Active | Non-toxic | Active | Active | Active | Activity [21]: Active; Activity [22]: Active; Activity [23]: Active; Activity [24]: Active; Activity [25]: Active; Activity [26]: Active; Activity [27]: Active; Activity [28]: Active; Activity [29]: Active; Activity [30]: Active; Activity [31]: Active; Activity [32]: inactive; Activity [33]: Active; Activity [34]: Active; Activity [35]: Active; Activity [36]: inactive; Activity [37]: Active; Activity [38]: Active
4 | CCONC(=O)c1cn(CC)nc1OCc1cccc(C(F)(F)F)c1 | Active | Active | Active | Non-toxic | Active | Active | Active | Active | Active | Active | Active | Active | Active | Active | Active | Active | Non-toxic | Active | Active | Active | Activity [21]: inactive; Activity [22]: Active; Activity [23]: Active; Activity [24]: Active; Activity [25]: Active; Activity [26]: Active; Activity [27]: Active; Activity [28]: Active; Activity [29]: Active; Activity [30]: inactive; Activity [31]: Active; Activity [32]: inactive; Activity [33]: Active; Activity [34]: Active; Activity [35]: Active; Activity [36]: Active; Activity [37]: Active; Activity [38]: Active
5 | Cn1cc(C(=O)NOc2ccc(Cl)cc2Cl)c(OCc2cccc(C(F)(F)F)c2)n1 | Active | Active | Active | Non-toxic | Active | Active | Active | Active | Active | Active | Active | Active | Active | Active | Active | Active | Non-toxic | Active | Active | Active | Activity [21]: Active; Activity [22]: Active; Activity [23]: Active; Activity [24]: Active; Activity [25]: Active; Activity [26]: Active; Activity [27]: Active; Activity [28]: Active; Activity [29]: Active; Activity [30]: Active; Activity [31]: Active; Activity [32]: inactive; Activity [33]: Active; Activity [34]: Active; Activity [35]: Active; Activity [36]: Active; Activity [37]: Active; Activity [38]: Active
6 | Cn1cc(C(=O)NOc2ccc(F)cc2)c(OCc2cccc(C(F)(F)F)c2)n1 | inactive | Active | Active | Non-toxic | Active | Active | Active | Active | Active | Active | Active | Active | Active | Active | Active | Active | Non-toxic | Active | Active | Active | Activity [21]: Active; Activity [22]: Active; Activity [23]: Active; Activity [24]: Active; Activity [25]: Active; Activity [26]: Active; Activity [27]: Active; Activity [28]: Active; Activity [29]: Active; Activity [30]: Active; Activity [31]: Active; Activity [32]: inactive; Activity [33]: Active; Activity [34]: Active; Activity [35]: Active; Activity [36]: inactive; Activity [37]: Active; Activity [38]: Active
